# Literature values, collected in US5872104A, “Combinations and methods for reducing antimicrobial resistance” (Oridigm Corporation, priority 1994, dated 1999).
# Several values for one entry are separate records, joined by “and”; a condition that tells them apart may be missing. Equal entries are not always repeated. Where two headings read alike, the source gives them in different places.
# Assays:
# [1] = test system: Staphylococcus aureus (penicillin susceptible); settings: cited from earlier work
# [2] = test system: Bordetella bronchiseptica; settings: cited from earlier work
# [3] = test system: Chlamydia trachomatis; settings: in µg/mL; cited from earlier work
# [4] = test system: Listeria monocytogenes; settings: in µg/mL; cited from earlier work
# [5] = test system: Nocardia asteroides; settings: cited from earlier work
# [6] = test system: Neisseria gonorrhoeae; settings: in µg/mL; cited from earlier work
# [7] = test system: Staphylococcus aureus (penicillin resistant); settings: cited from earlier work
# [8] = test system: Neisseria gonorrhoeae; settings: cited from earlier work
# [9] = test system: Streptococcus pyogenes; settings: cited from earlier work
# [10] = test system: Staphylococcus coagulase .phi.; settings: cited from earlier work
# [11] = test system: N. meningitidis; settings: in µg/mL; cited from earlier work
# [12] = test system: Enterococcus spp.; settings: cited from earlier work
# [13] = test system: Borrelia burgdorferi; settings: cited from earlier work
# [14] = test system: Moraxella catarrhalis; settings: in µg/mL; cited from earlier work
# [15] = test system: Haemophilus parainfluenzae; settings: cited from earlier work
# [16] = test system: Bacteroides fragilis; settings: anaerobes; in µg/mL; cited from earlier work
# [17] = test system: S. aureus; settings: agar disc susceptibility test; cited from earlier work
# [18] = test system: Streptococcus agalactiae; settings: cited from earlier work
# [19] = test system: Staphylococcus haemolyticus; settings: cited from earlier work
# [20] = test system: Campylobacter pylori; settings: cited from earlier work
# [21] = test system: Branhamella (Moraxella) catarrhalis; settings: cited from earlier work
# [22] = test system: Legionella pneumophila; settings: in µg/mL; cited from earlier work
# [23] = test system: Bordetella parapertussis; settings: cited from earlier work
# [24] = test system: Mycoplasma pneumoniae; settings: in µg/mL; cited from earlier work
# [25] = test system: Staphylococcus coagulase .phi. (non β-lactamase producer); settings: cited from earlier work
# [26] = test system: Staphylococcus hominis; settings: cited from earlier work
# [27] = test system: Corynebacterium JK; settings: cited from earlier work
# [28] = test system: Listeria monocytogenes; settings: in µg/mL; cited from earlier work; remark: listed apart in the source
# [29] = test system: Bordetella pertussis; settings: in µg/mL; cited from earlier work
# [30] = test system: Staphylococcus aureus (methicillin susceptible); settings: in µg/mL; cited from earlier work
# [31] = test system: Viridans streptococci; settings: cited from earlier work
# [32] = test system: Staphylococcus coagulase .phi. (β-lactamase producer); settings: cited from earlier work
# [33] = test system: Staphylococcus epidermidis; settings: cited from earlier work
# [34] = test system: Bacillus spp.; settings: cited from earlier work
# [35] = test system: Streptococcus spp.; settings: cited from earlier work
# [36] = test system: Streptococcus agalactactiae (group B); settings: in µg/mL; cited from earlier work
# [37] = test system: Chlamydia pneumoniae (formerly TWAR); settings: in µg/mL; cited from earlier work
# [38] = test system: Neisseria gonorrhoeae (non β-lactamase producer); settings: cited from earlier work
# [39] = test system: Mycoplasma pneumoniae; settings: cited from earlier work
# [40] = test system: Streptococcus pneumoniae; settings: in µg/mL; cited from earlier work
# [41] = test system: Clostridium perfringens; settings: anaerobes; in µg/mL; cited from earlier work
# [42] = test system: Staphylococcus aureus; settings: cited from earlier work
# [43] = in vivo; cited from earlier work
# [44] = test system: Enterococcus faecium; settings: cited from earlier work
# [45] = test system: Bordetella pertussis; settings: cited from earlier work
# [46] = test system: Streptococcus pyogenes (group A), erythromycin susceptible; settings: cited from earlier work
# [47] = test system: Haemophilus influenzae (penicillin resistant); settings: cited from earlier work
# [48] = test system: Ureaplasma urealyticum; settings: cited from earlier work
# [49] = test system: Campylobacter jejuni; settings: in µg/mL; cited from earlier work
# [50] = test system: Bacteroides fragilis; settings: cited from earlier work
# [51] = test system: Legionella spp.; settings: cited from earlier work
# [52] = test system: Haemophilus ducreyi; settings: cited from earlier work
# [53] = test system: Haemophilus influenzae (penicillin susceptible); settings: cited from earlier work
# [54] = test system: Haemophilus influenzae; settings: cited from earlier work
# [55] = test system: Neisseria meningitidis; settings: cited from earlier work
# [56] = test system: Staphylococcus aureus, methicillin susceptible; settings: in µg/mL; cited from earlier work
compound,measurement,setting,value
CC[C@H]1OC(=O)[C@H](C)[C@@H](O[C@H]2C[C@@](C)(OC)[C@@H](O)[C@H](C)O2)[C@H](C)[C@@H](O[C@@H]2O[C@H](C)C[C@H](N(C)C)[C@H]2O)[C@](C)(O)C[C@@H](C)C(=O)[C@H](C)[C@@H](O)[C@]1(C)O [Erythromycin],MIC90,[1],0.5 µg/mL
same,MIC50,[1]; in µg/mL,0.5 and 0.25
same,MIC50,[2],8 µg/mL
same,MIC90,[2],32 µg/mL
same,Range,[2],4-32
same,MIC90,[3],0.12-0.25
same,MIC50,[4],0.5 and 0.25
same,MIC50,[5],≥ 8 µg/mL
same,MIC90,[5],≥ 8 µg/mL
same,MIC90,[6],0.25-2.0
same,MIC50,[7],0.25 µg/mL
same,MIC90,[7],≥ 32 µg/mL
same,MIC50,[8],0.25 µg/mL
same,MIC90,[8],1 µg/mL
same,Range,[8],0.0075-8
same,MIC50,[9],0.06 µg/mL
same,MIC50,[10],0.25 µg/mL
same,MIC90,[11],0.4-1.6
same,MIC50,[12],2 µg/mL
same,MIC90,[12],≥ 32 µg/mL
same,MIC50,[13],0.03 µg/mL
same,MIC90,[13],0.06 µg/mL
same,MIC90,[14],0.25-2.0
same,MIC50,[15],2 µg/mL
same,MIC90,[15],4 µg/mL
same,Range,[15],0.5-8
same,MIC90,[16],4.0-32.0
same,MIC90,[17],about 4 μg/ml
same,MIC50,[18],0.03 µg/mL
same,Range,[18],0.03-0.25
same,MIC50,[19],≥ 64 µg/mL
same,MIC90,[19],≥ 64 µg/mL
same,MIC50,[20],0.5 µg/mL
same,Range,[20],0.25-16
same,MIC50,[21],0.25 µg/mL
same,MIC90,[22],1.0-2.0
same,MIC50,[23],0.25 µg/mL
same,MIC90,[23],0.25 µg/mL
same,MIC90,[24],0.004
same,MIC90,[25],0.25 µg/mL
same,Range,[25],0.03-8
same,MIC50,[26],≥ 64 µg/mL
same,MIC90,[26],≥ 64 µg/mL
same,MIC50,[27],2 µg/mL
same,MIC90,[27],≥ 64 µg/mL
same,MIC90,[28],0.5-2.0
same,MIC90,[29],0.3-1.6
same,MIC50,[30],0.25 and 0.5
same,MIC90,[31],0.06 µg/mL
same,MIC90,[32],4 µg/mL
same,Range,[32],0.06-16
same,MIC50,[33],≥ 64 µg/mL
same,MIC90,[33],≥ 64 µg/mL
same,MIC50,[34],0.25 µg/mL
same,MIC90,[34],2 µg/mL
same,Range,[34],0.03-2
same,MIC50,[35],0.03 µg/mL
same,MIC90,[35],1 µg/mL
same,MIC90,[36],0.03-0.25
same,MIC90,[37],0.065-1.0
same,Range,[38],0.015-4 and 0.03-2
same,MIC90,[39],≤ 0.004 µg/mL
same,MIC90,[40],0.03-1.0
same,MIC90,[41],1.0
same,MIC50,[42],0.5 µg/mL
same,clinical safety,[43],one of the safest antibiotics in current clinical use
same,MIC50,[44],1 µg/mL
same,MIC90,[44],≥ 64 µg/mL
same,MIC50,[45],0.25 µg/mL
same,MIC90,[46],0.03 µg/mL
same,MIC50,[47],8 µg/mL
same,MIC90,[47],16 µg/mL
same,Range,[47],8-16
same,MIC90,[48],32 µg/mL
same,MIC90,[49],4 and 2
same,MIC50,[50],1 µg/mL
same,MIC90,[50],8 µg/mL
same,Range,[50],≤0.25-16
same,MIC90,[51],0.25 µg/mL
same,MIC50,[52],0.004 µg/mL
same,MIC90,[52],0.06 µg/mL
same,MIC50,[53],8 µg/mL
same,MIC90,[53],16 µg/mL
same,Range,[53],0.25-16
same,Range,[54],0.5-8
same,MIC50,[54]; in µg/mL,2 and 1
same,MIC50,[55],1 µg/mL
same,MIC90,[55],8 µg/mL
same,Range,[55],0.5-8
same,MIC90,[56],0.25-0.50
